Values quoted from earlier work as cited in patent publication US20080311054A1, “Compositions and Methods to Counteract Oral Malodour” (GIVAUDAN SA, priority 2005, published 2008).

Tested on: microorganisms such as yeasts
Conditions: WO 99/51093

For `CCCCCCCCO` [octanol], the “effect (killing microorganisms such as yeasts)” value is listed as “no effect”.
